How the values were obtained:
Cricetinae gen. sp. [1] = experiment: Compound at dose 20 ug was tested for percentage inhibition of HLE-induced Lung Hemorrhage in hamsters at 1 hr prior to installation of human leukocyte elastase; assay type: functional, Cricetulus griseus
Cricetinae gen. sp. [2] = experiment: Compound at dose 20 ug was tested for percentage inhibition of HLE-induced Lung Hemorrhage in hamsters at 2 hr prior to installation of human leukocyte elastase; assay type: functional, Cricetulus griseus
Cricetinae gen. sp. [3] = experiment: Compound at dose 20 ug was tested for percentage inhibition of HLE-induced Lung Hemorrhage in hamsters at 3 hr prior to installation of human leukocyte elastase; assay type: functional, Cricetulus griseus
Cricetinae gen. sp. [4] = experiment: Compound at dose 20 ug was tested for percentage inhibition of HLE-induced Lung Hemorrhage in hamsters at 4 hr prior to installation of human leukocyte elastase; assay type: functional, Cricetulus griseus
[5] = molecular target: T1, Neutrophil elastase (Homo sapiens) (UniProt P08246); experiment: Inhibition of human leukocyte elastase-induced lung hemorrhage in hamster, after 100 ug of compound administered intratracheally.; assay type: functional, tissue-based
T1 sequence (whole entry): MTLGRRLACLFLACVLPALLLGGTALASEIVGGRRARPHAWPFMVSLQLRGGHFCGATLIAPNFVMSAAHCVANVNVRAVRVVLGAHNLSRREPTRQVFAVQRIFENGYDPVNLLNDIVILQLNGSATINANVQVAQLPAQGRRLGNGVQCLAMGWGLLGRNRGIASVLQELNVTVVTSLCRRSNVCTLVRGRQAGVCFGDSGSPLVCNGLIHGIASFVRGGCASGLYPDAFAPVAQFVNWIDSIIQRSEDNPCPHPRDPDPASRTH

[6] = molecular target: T1, Neutrophil elastase (Homo sapiens); experiment: Inhibition of human leukocyte elastase, expressed as biomolecular rate constant.
Cricetinae gen. sp. [7] = experiment: Effective dose administered intratracheally required to give 50% inhibition at 30 minutes prior to installation of human leukocyte elastase in hamster lung; assay type: functional, Cricetulus griseus

inhibition [5] [%]	K obs / 1 [6] [M⁻¹ s⁻¹]	SMILES	Inhibition (Cricetinae gen. sp. [1]) [%]	Inhibition (Cricetinae gen. sp. [2]) [%]	Inhibition (Cricetinae gen. sp. [3]) [%]	Inhibition (Cricetinae gen. sp. [4]) [%]	ED50 (Cricetinae gen. sp. [7]) [µg]
98	377	CC[C@H]1C(=O)N(S(=O)(=O)c2ccc(C)cc2)[C@@H]1C(=O)O	78	33	1	16	3
94	732	CC[C@@H]1C(=O)N(S(=O)(=O)c2ccc(C)cc2)[C@@H]1C(=O)N(C)CC(=O)O					
50	129	CCC1C(=O)N(C(=O)NCc2ccccc2)C1OCC(=O)O (stereo not given)					
73	1550	CCC1C(=O)N(S(=O)(=O)c2ccc(C)cc2)C1C(=O)OCC(=O)O (cis isomer) [listing 1 of 2 here]					
81	158	CCOC(=O)N1C(=O)C(CC)C1OC(C)C(=O)O (single isomer, unassigned; isomer B)					
86	136	CCOC(=O)N1C(=O)[C@@H](CC)[C@@H]1OCC(=O)O	92	49	6	-3	11.3
74	398	CC[C@@H]1C(=O)N(S(=O)(=O)c2ccc(C)cc2)[C@H]1C(=O)N(C)CC(=O)O					
98	467	CCOC(=O)N1C(=O)C(CC)C1OCC(=O)O (trans isomer) [listing 1 of 2 here]					
99	918	CCOC(=O)N1C(=O)[C@H](CC)[C@H]1OCC(=O)O	100	82	59	-14	3.9
	4100	CCOC(=O)N1C(=O)C(CC)C1Oc1ccc(CC(=O)O)cc1 (trans isomer)					
51	955	CCC1C(=O)N(C(=O)OCc2ccccc2)C1OCC(=O)O (trans isomer)					
	2070	CCC1C(=O)N(C(=O)NCc2ccccc2)C1Oc1ccc(CC(=O)O)cc1 (trans isomer)					
81	796	CCOC(=O)N1C(=O)C(CC)C1OCC(=O)O (cis isomer)					
		CCOC(=O)N1C(=O)C(CC)C1OCC(=O)O (trans isomer) [listing 2 of 2 here]	96	63	36	-5	6.3
71	1670	CCOC(=O)N1C(=O)C(CC)C1[S+]([O-])CC(=O)O (stereo not given)					
84	165	CCC1C(=O)N(S(=O)(=O)c2ccc(C)cc2)C1C(=O)N(C)CC(=O)O (cis isomer)	78	68	60	4	18.7

inhibition [5] [%]	K obs / 1 [6] [M⁻¹ s⁻¹]	SMILES	Inhibition (Cricetinae gen. sp. [1]) [%]	Inhibition (Cricetinae gen. sp. [2]) [%]	Inhibition (Cricetinae gen. sp. [3]) [%]	Inhibition (Cricetinae gen. sp. [4]) [%]	ED50 (Cricetinae gen. sp. [7]) [µg]
99	271	CC[C@H]1C(=O)N(S(=O)(=O)c2ccc(C)cc2)[C@@H]1C(=O)N(C)CC(=O)O					
2	3840	CC[C@H]1C(=O)N(C(=O)NCc2ccccc2)[C@@H]1Oc1ccc(C(=O)O)cc1					
23	1250	CCOC(=O)N1C(=O)C(CC)C1OCCCC(=O)O (trans isomer)					
		CO[C@H]1C(=O)N2C(C(=O)N3CCC[C@H]3C(=O)O)=C(COC(C)=O)CS(=O)(=O)[C@H]12	98	85	74	-23	3.1
		CCC1C(=O)N(S(=O)(=O)c2ccc(C)cc2)C1C(=O)OCC(=O)O (cis isomer) [listing 2 of 2 here]	66	32	11	30	24.6
70	5620	CCOC(=O)N1C(=O)C(CC)C1S(=O)(=O)CC(=O)O (trans isomer)					
72	1000	CCOC(=O)N1C(=O)C(CC)C1OCC(=O)NCC(=O)O (stereo not given)					
	6350	CCOC(=O)N1C(=O)C(CC)C1Oc1ccc(C(=O)O)cc1 (trans isomer)					
14	9420	CCC1C(=O)N(S(=O)(=O)c2ccc(C)cc2)C1C(=O)OCC(=O)O (stereo in doubt)					
88	1500	CCCC1C(=O)N(C(=O)OCC)C1OCC(=O)O (stereo not given)	83	31	-17	-2	6.3
80	93	CCC1C(=O)N(S(=O)(=O)c2ccc(C)cc2)C1C(=O)O (cis isomer)					
71	346	CCOC(=O)N1C(=O)C(CC)C1OC(C)C(=O)O (single isomer, unassigned; isomer A)					
17	339	CC[C@@H]1C(=O)N(C(=O)NCc2ccccc2)[C@H]1Oc1ccc(C(=O)O)cc1					
31	560	CCOC(=O)N1C(=O)C(CC)C1OCCC(=O)O (trans isomer)					
56	1090	CCOC(=O)N1C(=O)C(CC)C1SCC(=O)O (trans isomer)					
61	110	CC[C@H]1C(=O)N(S(=O)(=O)c2ccc(C)cc2)[C@H]1C(=O)N(C)CC(=O)O					

From ChEMBL document CHEMBL1125952, “Prevention of human leukocyte elastase-mediated lung damage by 3-alkyl-4-azetidinones” (1991)
